Key:
USP9X catalytic domain = molecular target: T1, USP9X catalytic domain (Homo sapiens, UniProt Q93008); assay: HDX-MS; assay type: binding; conditions: 6 s deuterium exchange; 80 µM WEHI-092 or 30 µM FT709
T1 construct: His/SUMO (pOPIN-S vector) (N, cleaved yes); made in house; host or cells: E. coli BL21
T1 sequence (Q93008 1551-1970): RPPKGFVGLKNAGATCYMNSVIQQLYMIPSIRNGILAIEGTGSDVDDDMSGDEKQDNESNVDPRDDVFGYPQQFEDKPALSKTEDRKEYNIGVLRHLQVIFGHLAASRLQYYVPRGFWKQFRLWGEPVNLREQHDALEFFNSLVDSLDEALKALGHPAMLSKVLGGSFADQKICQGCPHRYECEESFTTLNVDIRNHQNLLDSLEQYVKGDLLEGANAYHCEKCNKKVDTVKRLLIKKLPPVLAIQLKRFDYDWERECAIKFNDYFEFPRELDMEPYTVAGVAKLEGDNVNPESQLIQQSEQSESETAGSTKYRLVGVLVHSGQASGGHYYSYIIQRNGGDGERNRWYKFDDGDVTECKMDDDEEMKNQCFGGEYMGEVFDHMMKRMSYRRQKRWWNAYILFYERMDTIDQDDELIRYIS
Protocol: Deuterium labelling of USP9X catalytic domain was performed as described previously (Asadollahi et al, [2023]) at 20 °C for periods of 0, 6, 60, 6000 s using a PAL Dual Head HDX Automation manager (Trajan/LEAP) controlled by the ChronosHDX software. […] Quenching was performed by adding 50 µL of the protein mix to 50 µL of quench buffer (50 mM potassium phosphate buffer [pH 2.3], 4 M guanidine hydrochloride and 0.1% [v/v] n-dodecylphosphocholine) at 1 °C. […] To further reduce peptide carryover, n-octyl-β-d-glucopyranoside at 1% (w/w) was added to the pepsin column wash solution (1.5 M guanidine hydrochloride, 4% [v/v] acetonitrile [ACN], 0.8% [v/v] FA). […] For MS, an ion mobility equipped SYNAPT G2-Si mass spectrometer (Waters) was used. Instrument settings were: 3.0 KV capillary and 40 V sampling cone with source and desolvation temperatures of 100 °C and 40 °C, respectively. The desolvation and cone gas flow were at 80 L/h and 100 L/h, respectively. High-energy ramp trap collision energy was from 20 to 40 V. All mass spectra were acquired using a 0.4 s scan time with continuous lock mass (Leu-Enk, 556.2771 m/z) for mass accuracy correction. […] The deuterium uptake values were calculated for each peptide using DynamX 3.0 (Waters). […]

UO-31 cell line = assay: NCI-60 cancer cell panel, UO-31; assay type: cell-based, human; conditions: 10 µM, 3 days
Protocol: Inhibitors were tested at 10 µM. Data shown is the mean of two technical replicates and is shown relative to the no-drug control, and relative to the time zero number of cells.

MiaPaca2 cells = assay: Lattice light sheet imaging of mitosis, MiaPaca2; assay type: cell-based, human; conditions: 15 µM
Protocol: MDA-MB-231, MiaPaca2, HMEC-1, SK-MEL-2 and UO-31 cells were seeded at 2–15 × 10^4 cells/mL in 8-well glass µ-slides (ibidi). […] SPY650-Tubulin, SPY555-DNA (both Spirochrome, Inc.), and Annexin V FITC (Sigma-Aldrich) were added at a final concentration of 1 in 1000. Cells were left to grow for 24 h before time-lapse live-cell data were acquired using a Lattice Light Sheet 7 (Zeiss). […] Aberration correction was set to a value of 170 to minimise aberrations as determined by imaging the Point Spread Function using 100 nm fluorescent microspheres. Data were collected with a frame time of 10 ms and a z step of 0.4 μm with 834 frames per 290 μm by 290 μm. Individual regions were imaged in parallel across six wells of the eight-well chamber slide. Data are presented as Maximum Intensity Projections (MIPs), and these MIPs were used for all downstream analysis. Tile regions were imaged for 24 h with 10 min intervals at 37 °C, 5% CO2. Analysis was performed using the MIPs of the different full fields of cells over the 24–48 h time period. Mitosis and mitosis arrest were classified through a combination of automated image analysis and manual validation. […] Small erroneous detected spots were further removed through a manually adjusted size filter. […] The mean intensity of all tracks was then measured to determine mitosis and mitosis arrest. […]

Which “changes in hydrogen-deuterium uptake upon compound binding” value (USP9X catalytic domain) does the source give for Cc1[nH]c2ccc(C(=O)N3CCN(S(=O)(=O)c4ccc5c(c4)OCCO5)CC3)cc2c1C [WEHI-092] here?
The value was “protection of five overlapping peptides that included residues 1757-1762”.

What about the “cell killing, UO-31” value (UO-31 cell line) of the same compound?
The value was “cell death”.

What about the “apoptosis on metaphase arrest (Annexin V uptake), MiaPaca2” value (MiaPaca2 cells) of the same compound?
Its value is “did not trigger apoptosis”.

And the “cell division phenotype, MiaPaca2” value (MiaPaca2 cells; imaged 24-48 h)?
The value was “significant defects in cell division”.
